Assay results published in PubChem BioAssay (NCI).
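Each compound was tested at five concentrations against cells in 96-well plates for 48 hours. GI50 = concentration required for 50% inhibition of growth. TGI denotes the concentration required for complete inhibition of growth.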

What was measured:
Assay in all cases: NCI anticancer screen, dose series, 48 h
786-0 renal = test system: 786-0 renal
BT-549 breast = test system: BT-549 breast
EKVX NSCLC = test system: EKVX NSCLC
HCT-116 colon = test system: HCT-116 colon
MDA-N = test system: MDA-N
MOLT-4 leukemia = test system: MOLT-4 leukemia
NCI-H23 lung = test system: NCI-H23 lung
OVCAR-3 ovarian = test system: OVCAR-3 ovarian
OVCAR-8 ovarian = test system: OVCAR-8 ovarian
SK-OV-3 ovarian = test system: SK-OV-3 ovarian

Row | Compound | TGI (786-0 renal) [µM] | TGI (BT-549 breast) [µM] | TGI (EKVX NSCLC) [µM] | TGI (HCT-116 colon) [µM] | TGI (MDA-N) [µM] | TGI (MOLT-4 leukemia) [µM] | TGI (NCI-H23 lung) [µM] | TGI (OVCAR-3 ovarian) [µM] | TGI (OVCAR-8 ovarian) [µM] | TGI (SK-OV-3 ovarian) [µM] | GI50 (HCT-116 colon) [µM] | GI50 (BT-549 breast) [µM] | GI50 (EKVX NSCLC) [µM] | GI50 (MOLT-4 leukemia) [µM] | GI50 (NCI-H23 lung) [µM] | GI50 (OVCAR-3 ovarian) [µM] | GI50 (OVCAR-8 ovarian) [µM] | GI50 (SK-OV-3 ovarian) [µM]
1 | CCOC(=O)c1nnsc1NN | > 100 | > 100 | > 100 | > 100 | > 100 | > 100 | > 100 | > 100 | > 100 | > 100 | – | – | – | – | – | – | – | –
2 | COC1=C(C)C(=O)c2c(c(COC(N)=O)c3n2CC(OC(C)=O)C3OC(C)=O)C1=O (stereo unspecified) | 0.0581 | 1.21 | 0.678 | 0.129 | 0.29 | 2.03 | 0.25 | 0.416 | 0.373 | 1.57 | – | – | – | – | – | – | – | –
3 | C[C@H]1SC(c2ccc(Cl)cc2Cl)N(NC(=O)c2ccncc2)C1=O (stereo partly specified) | – | > 100 | 98.8 | 60.4 | 57.5 | – | > 100 | > 100 | > 100 | > 100 | – | – | – | – | – | – | – | –
4 | COc1ccc(NC(=S)NC(=O)c2ccc3c(c2)Sc2ccccc2O3)c([N+](=O)[O-])c1 | 56.5 | 70.5 | – | > 100 | > 100 | > 100 | > 100 | 58.5 | > 100 | 98.3 | – | – | – | – | – | – | – | –
5 | CC1(C)[C@H]2CC[C@@]13C(=O)N1C(=O)O[C@@H]([C@H]1Cl)C(Cl)(COCc1ccccc1)C(=O)OCCO[C@H]3C2 (stereo partly specified) | > 100 | > 100 | > 100 | > 100 | > 100 | 76.9 | > 100 | > 100 | > 100 | > 100 | – | – | – | – | – | – | – | –
6 | C[C@]12CC[C@@H]3c4cc(I)c(O)cc4CC[C@H]3[C@@H]1CC[C@@H]2O | 18.4 | 25.1 | 15.6 | 16.5 | 5.77 | > 54.8 | 25.1 | 11.9 | 40.2 | 16.4 | 5.01 | – | – | – | – | – | – | –
7 | COC(=O)c1cc(C#N)[nH]c1-c1cc(Br)cs1 | 48.7 | 35.1 | 47.6 | 28.3 | 29.4 | 50.8 | 25.7 | 21.9 | 43.7 | 46 | – | – | – | – | – | – | – | –
8 | C\C(=N/N=C1/C(=C\N(C)C)C(=O)NC(=O)N1C)c1ccc(Cl)cc1 | > 100 | > 100 | > 100 | > 100 | > 100 | > 100 | > 100 | > 100 | > 100 | > 100 | – | – | – | – | – | – | – | –
9 | COC(=O)C1=Nc2c(C)nn(-c3ccccc3)c2N=C(c2ccccc2)C1 | > 10 | > 10 | – | > 10 | > 10 | > 10 | > 10 | > 10 | > 10 | > 10 | – | – | – | – | – | – | – | –
10 | COc1ccc(CN2C3CC2CN(c2ccc(-c4cc(OCC(C)(C)O)cn5ncc(C#N)c45)cn2)C3)cn1 | – | > 100 | > 100 | > 100 | – | > 100 | > 100 | > 100 | > 100 | > 100 | 8.06 | 3.34 | 6.9 | 52.9 | 17.8 | > 100 | 13.2 | 5.64
11 | Oc1[nH]c2ccccc2c1N=NC(=S)Nc1ccc(Cl)cc1 | > 100 | – | > 100 | > 100 | > 100 | > 100 | > 100 | > 100 | 98.8 | > 100 | – | – | – | – | – | – | – | –
12 | CN(C)CC1CCC(CN(C)C)C1=O (stereo unspecified) | 4.11 | – | 11 | 5.23 | 3.85 | 4.03 | 12.9 | 7.24 | 10.3 | 30.6 | – | – | – | – | – | – | – | –
13 | COc1ccc(N(C(=O)Nc2ccc(Cl)c(Cl)c2)C2c3cccn3C(=O)N2c2ccc(Cl)c(Cl)c2)cc1 (stereo unspecified) | > 100 | > 100 | > 100 | > 100 | > 100 | > 100 | > 100 | – | > 100 | – | – | – | – | – | – | – | – | –
14 | O=C1NCN(c2ccccc2)C12CCN(CCCN1CCN(CCOC(c3ccc(F)cc3)c3ccc(F)cc3)CC1)CC2 | 3.2 | 5.44 | 9.81 | 3.32 | 3.65 | 15.1 | 9.69 | 3.86 | 4.82 | 4.61 | – | – | – | – | – | – | – | –
15 | COC(=O)/C(C#N)=C(/NCCN)Nc1ccccc1 | > 100 | > 100 | > 100 | > 100 | > 100 | > 100 | > 100 | > 100 | > 100 | > 100 | – | – | – | – | – | – | – | –
16 | COc1cc(NC(C)=O)ccc1C(=O)NN1C(=O)/C(=C/c2ccco2)N=C1c1ccccc1 | > 50 | > 50 | > 50 | > 50 | > 50 | 45.6 | > 50 | > 50 | > 50 | > 50 | – | – | – | – | – | – | – | –
17 | CC(=O)OC1CCC2C3CCc4c(C)ccc(OS(=O)(=O)c5ccccc5)c4C3CCC12C (stereo unspecified) | 36.9 | > 100 | > 100 | 48.3 | > 100 | > 100 | > 100 | 46.7 | – | > 100 | – | – | – | – | – | – | – | –
18 | CCC(C(=O)C(=O)OC)P1(=O)OC(C)(C)CN1C(C)(C)C (stereo unspecified) | > 100 | > 100 | > 100 | > 100 | – | > 100 | > 100 | > 100 | > 100 | > 100 | – | – | – | – | – | – | – | –
19 | C#CCN(Cc1ccc2nc(OC)c(OC)nc2c1)c1cc(OC)c(OC)c(OC)c1 | 78.7 | > 72.4 | > 86 | > 68.8 | 45.5 | 72.6 | 46.2 | > 100 | 64.3 | > 100 | – | – | – | – | – | – | – | –
20 | Cc1cnc2c(c1)C(=O)C1=C(C2=O)C2OC(=O)CC2OC1(C)C (stereo unspecified) | 0.9 | 0.363 | 0.826 | 0.399 | 0.865 | – | 0.986 | 0.153 | 2.19 | 2.77 | – | – | – | – | – | – | – | –
